PMC3726004 (Bioorganic & medicinal chemistry, 2009)

What was measured:
[1] = biological target: T1, α4β2* nAChRs (Rattus norvegicus, UniProt P09483+P12390); assay: nicotine-evoked 86Rb+ efflux from rat thalamic synaptosomes; type: biochemical
[2] = biological target: T1, α4β2* nAChRs; assay: [3H]nicotine; type: binding
[3] = biological target: VMAT2 (Rattus norvegicus, UniProt Q01827); assay: [3H]MTBZ or [3H]DTBZ binding to rat synaptic vesicle membranes
[4] = biological target: serotonin transporter (SERT) (Rattus norvegicus, UniProt P31652); assay: [3H]5-HT uptake into rat hippocampal synaptosomes; type: biochemical
serotonin transporter (SERT), sequence (P31652 whole entry): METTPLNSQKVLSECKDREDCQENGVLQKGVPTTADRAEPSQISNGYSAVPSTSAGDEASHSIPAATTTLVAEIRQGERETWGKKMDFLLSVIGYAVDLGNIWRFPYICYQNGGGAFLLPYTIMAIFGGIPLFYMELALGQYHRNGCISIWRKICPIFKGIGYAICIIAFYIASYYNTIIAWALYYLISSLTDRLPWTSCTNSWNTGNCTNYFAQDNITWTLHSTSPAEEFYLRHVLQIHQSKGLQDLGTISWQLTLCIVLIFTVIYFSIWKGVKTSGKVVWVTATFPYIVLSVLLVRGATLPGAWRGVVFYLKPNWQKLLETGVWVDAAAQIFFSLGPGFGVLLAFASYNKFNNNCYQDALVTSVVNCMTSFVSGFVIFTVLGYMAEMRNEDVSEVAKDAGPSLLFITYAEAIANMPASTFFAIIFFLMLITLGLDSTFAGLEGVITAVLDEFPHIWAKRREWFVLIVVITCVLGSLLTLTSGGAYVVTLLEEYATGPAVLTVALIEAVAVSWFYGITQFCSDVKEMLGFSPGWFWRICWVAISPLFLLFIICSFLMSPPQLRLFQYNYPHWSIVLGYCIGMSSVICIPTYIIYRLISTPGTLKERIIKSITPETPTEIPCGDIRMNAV

VMAT2, sequence (Q01827 whole entry): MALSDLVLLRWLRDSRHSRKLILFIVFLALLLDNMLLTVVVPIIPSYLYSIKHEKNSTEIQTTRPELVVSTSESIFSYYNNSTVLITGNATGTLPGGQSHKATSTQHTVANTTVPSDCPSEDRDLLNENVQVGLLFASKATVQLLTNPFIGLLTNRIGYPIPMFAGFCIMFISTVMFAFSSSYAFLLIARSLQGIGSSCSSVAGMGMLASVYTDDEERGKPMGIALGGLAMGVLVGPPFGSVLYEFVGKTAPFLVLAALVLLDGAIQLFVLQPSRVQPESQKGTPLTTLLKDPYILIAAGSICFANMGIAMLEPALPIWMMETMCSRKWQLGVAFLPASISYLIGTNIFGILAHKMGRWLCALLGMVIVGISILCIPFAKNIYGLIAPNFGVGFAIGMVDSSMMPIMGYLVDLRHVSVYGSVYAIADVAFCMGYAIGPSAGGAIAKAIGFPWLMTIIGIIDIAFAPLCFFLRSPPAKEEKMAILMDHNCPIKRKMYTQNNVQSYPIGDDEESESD
T1 sequence (P09483 31-630): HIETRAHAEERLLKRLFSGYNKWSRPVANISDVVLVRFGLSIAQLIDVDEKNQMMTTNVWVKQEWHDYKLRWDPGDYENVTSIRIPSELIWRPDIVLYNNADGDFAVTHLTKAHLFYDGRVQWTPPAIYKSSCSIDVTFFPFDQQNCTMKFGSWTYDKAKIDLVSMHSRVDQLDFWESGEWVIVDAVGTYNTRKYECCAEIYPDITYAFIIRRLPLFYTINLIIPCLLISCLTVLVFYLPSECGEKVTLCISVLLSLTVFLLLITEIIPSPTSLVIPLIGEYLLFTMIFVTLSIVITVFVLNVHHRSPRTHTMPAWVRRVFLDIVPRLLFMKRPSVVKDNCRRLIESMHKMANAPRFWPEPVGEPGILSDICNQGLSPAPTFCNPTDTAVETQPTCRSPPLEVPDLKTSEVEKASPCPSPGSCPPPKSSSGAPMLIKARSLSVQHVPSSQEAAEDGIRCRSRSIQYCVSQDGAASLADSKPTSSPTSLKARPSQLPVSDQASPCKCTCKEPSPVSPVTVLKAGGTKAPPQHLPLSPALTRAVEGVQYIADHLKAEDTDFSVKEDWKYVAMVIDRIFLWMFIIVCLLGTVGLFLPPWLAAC
T1 sequence (P12390 25-500): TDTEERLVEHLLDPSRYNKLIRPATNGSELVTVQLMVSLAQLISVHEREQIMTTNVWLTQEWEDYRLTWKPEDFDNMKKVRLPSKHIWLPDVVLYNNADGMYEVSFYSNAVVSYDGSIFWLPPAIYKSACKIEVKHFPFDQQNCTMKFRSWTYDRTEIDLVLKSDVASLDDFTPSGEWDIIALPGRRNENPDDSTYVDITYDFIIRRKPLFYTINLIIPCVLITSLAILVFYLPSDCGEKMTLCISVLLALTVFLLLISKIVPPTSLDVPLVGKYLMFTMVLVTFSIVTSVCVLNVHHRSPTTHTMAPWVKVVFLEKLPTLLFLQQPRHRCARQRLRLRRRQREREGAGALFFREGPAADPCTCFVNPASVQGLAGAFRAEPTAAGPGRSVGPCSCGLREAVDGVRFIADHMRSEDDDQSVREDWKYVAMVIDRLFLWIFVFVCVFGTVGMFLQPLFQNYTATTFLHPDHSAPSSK

CN1C(CC(=O)c2ccccc2)CCC[C@H]1CC(OC(=O)c1ccccc1)c1ccccc1.Cl (stereo in doubt) [Compound 2, (2S, 6S, 2R)-2-[6-(2-Benzoyloxy-2-phenylethyl)-1-methylpiperidin-2-yl]-1-phenylethanone hydrochloride]
extent of inhibition of nicotine-evoked 86Rb+ efflux [1]: completely inhibited
fold less potent than analog 10 in the [3H]nicotine binding assay [2]: 360 fold
fold less potent than lobeline in inhibiting [3H]nicotine binding (α4β2*) [2]: 215–4800 fold

Cc1ccc(S(=O)(=O)OC(C[C@@H]2CCCC(CC(=O)c3ccccc3)N2C)c2ccccc2)cc1.Cl (stereo in doubt) [Compound 11, (2S, 6S, 2R)-2-[6-(2-p-Toluenesulfonyloxy-2-phenylethyl)-1-methylpiperidin-2-yl]-1-phenylethanone hydrochloride]
potency compared with lobeline at α4β2* nAChRs ([3H]nicotine binding) [2]: equipotent

CCCC(=O)OC(C[C@@H]1CCCC(CC(=O)c2ccccc2)N1C)c1ccccc1.Cl (stereo in doubt) [Compound 7, (2S, 6S, 2R)-2-[6-(2-Butyryloxy-2-phenylethyl)-1-methylpiperidin-2-yl]-1-phenylethanone hydrochloride]
fold less potent than lobeline in inhibiting [3H]nicotine binding (α4β2*) [2]: 15 to 125 fold

CC(C)C(=O)OC(C[C@@H]1CCCC(CC(=O)c2ccccc2)N1C)c1ccccc1.Cl (stereo in doubt) [Compound 8, (2S, 6S, 2R)-2-[6-(2-Isobutyryloxy-2-phenylethyl)-1-methylpiperidin-2-yl]-1-phenylethanone hydrochloride]
fold less potent than lobeline in inhibiting [3H]nicotine binding (α4β2*) [2]: 15 to 125 fold

CN1[C@@H](CC(=O)c2ccccc2)CCC[C@H]1C[C@H](OC(=O)c1cccs1)c1ccccc1.Cl [Compound 9, (2S, 6S, 2R)-2-[6-(2-(2-Thiophen)-carboxyl-2-phenylethyl)-1-methylpiperidin-2-yl]-1-phenylethanone hydrochloride]
fold less potent than lobeline in inhibiting [3H]nicotine binding (α4β2*) [2]: 215–4800 fold

COc1ccc(C(=O)O[C@@H](C[C@@H]2CCC[C@H](CC(=O)c3ccccc3)N2C)c2ccccc2)cc1.Cl [Compound 4, (2S, 6S, 2R)-2-[6-(2-Anisoyloxy-2-phenylethyl)-1-methylpiperidin-2-yl]-1-phenylethanone hydrochloride]
potency compared with lobeline at VMAT2 [3]: equipotent
fold less potent than lobeline in inhibiting [3H]nicotine binding (α4β2*) [2]: 215–4800 fold

CN1C(CC(=O)c2ccccc2)CCC[C@H]1CC(OS(=O)(=O)c1ccccc1)c1ccccc1.Cl (stereo in doubt) [Compound 10, (2S, 6S, 2R)-2-[6-(2-Benzenesulfonyloxy-2-phenylethyl)-1-methylpiperidin-2-yl]-1-phenylethanone hydrochloride]
potency compared with lobeline at VMAT2 [3]: equipotent
potency compared with lobeline at SERT [4]: equipotent
extent of inhibition of nicotine-evoked 86Rb+ efflux [1]: completely inhibited

CC(=O)OC(C[C@@H]1CCCC(CC(=O)c2ccccc2)N1C)c1ccccc1.Cl (stereo in doubt) [Compound 5, (2S, 6S, 2R)-2-[6-(2-Acetyloxy-2-phenylethyl)-1-methylpiperidin-2-yl]-1-phenylethanone hydrochloride]
potency compared with lobeline at VMAT2 [3]: equipotent
potency compared with lobeline at SERT [4]: equipotent
fold less potent than lobeline in inhibiting [3H]nicotine binding (α4β2*) [2]: 15 to 125 fold

CCC(=O)OC(C[C@@H]1CCCC(CC(=O)c2ccccc2)N1C)c1ccccc1.Cl (stereo in doubt) [Compound 6, (2S, 6S, 2R)-2-[6-(2-Propionyloxy-2-phenylethyl)-1-methylpiperidin-2-yl]-1-phenylethanone hydrochloride]
fold less potent than lobeline in inhibiting [3H]nicotine binding (α4β2*) [2]: 15 to 125 fold
